Test [1] is described as follows: A Cell Based Secondary Assay To Explore Cytotoxicity of Compounds that Sensitize Mycobacterium Tuberculosis to Beta-Lactam Antibiotics. Format: functional.
The nature of test [2]: viability of PTEN-deleted HCT116 cells – cell-based, HCT116 PTEN knockout, dose response (AID 1047).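 Further: HCT116 colon tumor cells with PTEN knocked out; cells exposed to compound for 60 hours before readout; potency for loss of cell viability measured by luminescence.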 The format is functional.
Test [3] is described as follows: viability of HCT116 lacking mutant beta-catenin – cell-based, human colon tumor, dose response (AID 1045).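 Further: HCT116 colon tumor cells with beta catenin knocked out; cells exposed to compound for 60 hours.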 The format is functional.
The target in a further test is T1, Estrogen receptor (Homo sapiens, UniProt P03372).
T1 sequence (P03372 whole entry): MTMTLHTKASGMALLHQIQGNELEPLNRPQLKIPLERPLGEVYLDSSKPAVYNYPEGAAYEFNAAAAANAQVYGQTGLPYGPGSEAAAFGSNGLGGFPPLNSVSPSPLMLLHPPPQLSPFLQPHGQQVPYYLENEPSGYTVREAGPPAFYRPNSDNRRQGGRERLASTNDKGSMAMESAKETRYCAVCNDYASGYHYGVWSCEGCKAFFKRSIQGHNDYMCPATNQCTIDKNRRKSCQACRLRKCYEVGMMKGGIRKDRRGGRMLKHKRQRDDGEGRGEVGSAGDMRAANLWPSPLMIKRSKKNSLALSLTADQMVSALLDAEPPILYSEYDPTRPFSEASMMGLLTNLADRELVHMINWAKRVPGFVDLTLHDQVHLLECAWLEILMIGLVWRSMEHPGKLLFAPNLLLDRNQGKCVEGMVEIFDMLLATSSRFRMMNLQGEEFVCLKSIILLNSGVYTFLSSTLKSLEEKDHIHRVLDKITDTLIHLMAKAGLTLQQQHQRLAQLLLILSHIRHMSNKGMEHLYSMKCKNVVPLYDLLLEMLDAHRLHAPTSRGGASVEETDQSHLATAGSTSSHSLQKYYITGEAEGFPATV

For test [4], the system named is Streptococcus sp. 'group A'. Put plainly: Streptococcus pyogenes SK(-)GAS viability under kanamycin – luminescence, BacTiterGlo, confirmation, counter-screen for streptokinase expression inhibitor project, dose response (AID 1900). The format is functional, organism-based. Background: Counterscreens check selectivity or assay interference.
The subject of the next test is Streptococcus. Put plainly: GAS UMAA2166 growth inhibition – luminescence, BacTiterGlo, counter-screen for streptokinase expression inhibitor project, dose response (AID 1915).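 Further: potency for reduction of bacterial viability or growth.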 Format: functional, organism-based.
The target of the next test is T2, Streptokinase A (Streptococcus pyogenes serotype M1, UniProt P10520).
T2 sequence (P10520 whole entry): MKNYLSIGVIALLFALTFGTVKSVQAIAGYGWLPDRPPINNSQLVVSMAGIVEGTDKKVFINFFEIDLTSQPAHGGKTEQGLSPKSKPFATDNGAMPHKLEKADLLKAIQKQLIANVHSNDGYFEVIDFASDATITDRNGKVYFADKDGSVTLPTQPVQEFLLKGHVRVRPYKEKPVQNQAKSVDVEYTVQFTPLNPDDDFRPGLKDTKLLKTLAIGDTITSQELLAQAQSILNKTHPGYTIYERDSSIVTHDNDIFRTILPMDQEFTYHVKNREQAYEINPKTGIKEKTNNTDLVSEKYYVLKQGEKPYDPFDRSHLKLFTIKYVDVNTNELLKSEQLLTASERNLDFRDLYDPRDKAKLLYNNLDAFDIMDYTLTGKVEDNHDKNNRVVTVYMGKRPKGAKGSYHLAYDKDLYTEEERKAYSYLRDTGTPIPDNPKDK
Put plainly: viability-normalized secreted streptokinase activity reduction – plasminogen activation absorbance, OD405, dose response (AID 1914).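 Further: secreted streptokinase activity via plasminogen activation per viability signal from cell pellet.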 The format is functional, Streptococcus pyogenes M1 GAS.

The next test has as its target Estrogen receptor beta (Homo sapiens, UniProt Q92731).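 Further: recombinant ER-beta bound to coactivator SRC1 peptide in presence of estradiol agonist; inhibitors block coactivator peptide binding and lower the FRET signal.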
Another test has as its target Large T antigen (Simian virus 40, UniProt P03070). The format is functional, Betapolyomavirus macacae.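 Further: Confirmatory-stage PubChem screen for compounds that inhibit SV40 T antigen.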
The target in a further test is Genome polyprotein (dengue virus type 2, UniProt P29990). The experiment in a line: flavivirus cap methylation enzyme inhibition – biochemical, confirmation dose response, primary screen (AID 588689). Format: functional.
Sequence of Genome polyprotein (P29990 2492-3391 limits assumed): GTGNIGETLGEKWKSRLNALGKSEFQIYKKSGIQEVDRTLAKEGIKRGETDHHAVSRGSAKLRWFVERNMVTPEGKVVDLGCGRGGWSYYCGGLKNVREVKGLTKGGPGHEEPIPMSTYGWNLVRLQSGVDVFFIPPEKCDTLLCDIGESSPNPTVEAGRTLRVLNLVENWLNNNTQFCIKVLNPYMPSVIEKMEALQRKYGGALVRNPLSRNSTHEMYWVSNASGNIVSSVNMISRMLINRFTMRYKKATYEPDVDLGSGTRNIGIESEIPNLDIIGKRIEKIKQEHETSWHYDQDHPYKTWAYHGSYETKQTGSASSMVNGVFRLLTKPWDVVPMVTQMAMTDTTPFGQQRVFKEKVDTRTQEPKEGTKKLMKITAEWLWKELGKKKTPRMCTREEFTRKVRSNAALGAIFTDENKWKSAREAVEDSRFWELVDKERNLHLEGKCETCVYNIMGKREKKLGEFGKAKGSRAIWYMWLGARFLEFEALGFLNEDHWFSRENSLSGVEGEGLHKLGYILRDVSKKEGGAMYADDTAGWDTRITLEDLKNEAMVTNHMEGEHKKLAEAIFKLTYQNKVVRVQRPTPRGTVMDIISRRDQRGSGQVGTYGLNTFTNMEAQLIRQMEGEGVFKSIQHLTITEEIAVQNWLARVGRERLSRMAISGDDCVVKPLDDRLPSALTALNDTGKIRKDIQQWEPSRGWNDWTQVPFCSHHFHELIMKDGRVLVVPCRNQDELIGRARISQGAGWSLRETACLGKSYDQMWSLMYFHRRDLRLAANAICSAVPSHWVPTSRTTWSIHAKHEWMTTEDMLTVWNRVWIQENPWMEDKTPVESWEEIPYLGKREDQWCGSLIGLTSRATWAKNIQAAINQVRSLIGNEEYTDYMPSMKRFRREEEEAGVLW
The target in test [5] is Induced myeloid leukemia cell differentiation protein Mcl-1 (Homo sapiens, UniProt Q07820). Format: functional.
Sequence of Induced myeloid leukemia cell differentiation protein Mcl-1 (Q07820 whole entry): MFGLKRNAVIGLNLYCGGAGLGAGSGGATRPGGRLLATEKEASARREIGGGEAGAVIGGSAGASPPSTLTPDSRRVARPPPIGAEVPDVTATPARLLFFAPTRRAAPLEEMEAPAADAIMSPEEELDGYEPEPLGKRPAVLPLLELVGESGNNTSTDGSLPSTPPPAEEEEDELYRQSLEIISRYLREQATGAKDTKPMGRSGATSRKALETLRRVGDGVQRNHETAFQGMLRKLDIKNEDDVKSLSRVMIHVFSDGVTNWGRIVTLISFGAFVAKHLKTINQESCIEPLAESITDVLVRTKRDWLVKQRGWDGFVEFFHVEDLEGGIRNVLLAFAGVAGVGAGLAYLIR

Experimental findings from ChEMBL document CHEMBL1201862, “PubChem BioAssay data set” (2004) are described below.

The source made the active and inactive calls.

Sequence of Large T antigen (P03070 whole entry): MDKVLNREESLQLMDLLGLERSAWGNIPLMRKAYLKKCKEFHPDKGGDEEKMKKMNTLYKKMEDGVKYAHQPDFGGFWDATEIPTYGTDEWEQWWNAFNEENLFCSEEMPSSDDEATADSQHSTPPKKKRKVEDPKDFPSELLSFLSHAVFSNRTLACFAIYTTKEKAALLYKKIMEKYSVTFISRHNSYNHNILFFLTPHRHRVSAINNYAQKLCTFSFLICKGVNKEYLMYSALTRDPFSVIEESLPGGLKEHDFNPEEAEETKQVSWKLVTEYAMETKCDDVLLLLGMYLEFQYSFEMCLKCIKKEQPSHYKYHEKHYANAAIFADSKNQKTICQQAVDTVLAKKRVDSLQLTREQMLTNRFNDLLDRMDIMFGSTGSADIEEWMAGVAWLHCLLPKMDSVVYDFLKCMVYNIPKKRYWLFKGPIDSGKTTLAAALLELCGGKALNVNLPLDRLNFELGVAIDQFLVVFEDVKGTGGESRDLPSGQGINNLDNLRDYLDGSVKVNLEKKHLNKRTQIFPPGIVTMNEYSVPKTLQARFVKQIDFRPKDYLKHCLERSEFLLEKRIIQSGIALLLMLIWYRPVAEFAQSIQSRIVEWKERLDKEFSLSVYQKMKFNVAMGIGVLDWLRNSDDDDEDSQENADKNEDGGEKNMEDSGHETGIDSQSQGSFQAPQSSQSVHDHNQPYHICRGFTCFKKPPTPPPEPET
Sequence of Estrogen receptor beta (Q92731 whole entry): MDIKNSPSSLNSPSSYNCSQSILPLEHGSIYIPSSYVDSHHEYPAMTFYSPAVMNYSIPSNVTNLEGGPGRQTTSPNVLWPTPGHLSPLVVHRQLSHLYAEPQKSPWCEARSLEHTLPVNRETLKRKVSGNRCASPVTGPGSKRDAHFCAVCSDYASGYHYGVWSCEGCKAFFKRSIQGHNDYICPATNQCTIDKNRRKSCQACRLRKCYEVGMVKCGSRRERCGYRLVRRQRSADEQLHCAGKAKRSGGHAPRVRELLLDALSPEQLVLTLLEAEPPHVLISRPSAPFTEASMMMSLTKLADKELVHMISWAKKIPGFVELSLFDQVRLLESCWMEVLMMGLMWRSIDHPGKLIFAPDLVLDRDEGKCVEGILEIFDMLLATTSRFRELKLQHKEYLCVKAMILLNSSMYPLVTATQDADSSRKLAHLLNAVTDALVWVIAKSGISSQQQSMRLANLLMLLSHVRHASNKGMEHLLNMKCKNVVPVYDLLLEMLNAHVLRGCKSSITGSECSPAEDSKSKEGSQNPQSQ

For `CCOC(=O)c1cc(-c2ccc(C)cc2)n(CCC(=O)N2CCN(c3ccccn3)CC2)c1C`, the CC50 (usually the concentration giving 50% cytotoxicity) in test [1] is > 40 µM (active).
As for `Cc1cccc(NC(=O)Cn2c(=O)n(Cc3ccccc3)c(=O)c3c(C)c(C)sc32)c1`, the CC50 in [1] was > 40 µM (active).
`COc1cc2c(=O)n(Cc3ccco3)c(=O)n(CC(=O)c3cccc(Br)c3)c2cc1OC`: the results for the EC50 in [2] and in test [3] were 9.13 µM (active) and 9.71 µM (active), respectively. Also, in test [1], the cytotoxic concentration (CC50) is 22.2 µM (active).
For the molecule `Cc1nn(Cc2ccc(C(=O)Nc3nc4c(C)cccc4s3)o2)c(C)c1Br`, the IC50 (as a rule, the concentration needed to halve the response being measured) at Estrogen receptor is > 50 µM (not active). The EC50 (as a rule, the concentration giving half of the maximal effect) in test [4] was 4.94 µM (active); in the test with Streptococcus it was 8.54 µM (active); at Streptokinase A, 5.58 µM (active).
As to `Oc1ccc(/C=N/c2ccc(N3CCOCC3)cc2)c(O)c1`, the IC50 against Estrogen receptor is 30.4 µM (not active); on Estrogen receptor beta, 14.4 µM (active); at Large T antigen, 12.9 µM (active).
As to `Nc1c(C(=O)N2CCCC2)sc2nc3c(cc12)CCCCCC3`, the CC50 in test [1] is > 40 µM (active).
As for `COC(=O)C1=C(C(=O)OC)C(c2cc(Cl)ccc2O)c2sc(O)nc2S1` (stereo not given), the IC50 at Genome polyprotein is > 100 µM (active); in test [5], 4.4 µM (active).
